From patent US12626779B2, “Determining a targeted therapy using virtual inference of protein activity by regulon enrichment analysis of an individual subject tissue sample” (The Trustees of Columbia University in the City of New York, priority 2015, dated 2026)
Several values for one entry are separate records, joined by “and”; a condition that tells them apart may be missing. Equal entries are not always repeated. Where two headings read alike, the source gives them in different places.

Test system: lung adenocarcinoma cell lines
Source text: FIG. 7A illustrates the probability density for the nonmutated (salmon) and mutated (green) samples based on MPS for six actionable mutations (complete list in FIGS. 21A-21F). Right plots show MPS (v axis) for all samples rank-sorted by MPS; green vertical lines indicate the mutated samples. MPS-defined WT and mutant phenotypes (likelihood ratio >3) are highlighted in salmon and green. […] Scatter plots show drug sensitivity, quantified by the area under the titration curves (AUC), for EGFR-targeting drugs as a function of MPS (expressed as likelihood ratio). Cell lines resembling an EGFR mutated and WT phenotypes are highlighted in green (likelihood ratio >3) and salmon boxes, respectively. Green dots indicate cell lines harboring nonsilent mutations. Solid and doted horizontal lines indicate the mean and 2.33 standard deviation over the mean of the chemoresistant cell lines, respectively. […] Violin plots show the probability density for drug sensitivity (AUC) of the cell lines showing an EGFR WT (green) or mutant (brown) phenotype according to MPS; horizontal lines indicate distribution means, which were contrasted by Student t-test (P values in insets).

[1] = EGFR-mutated cell lines with MPS>0.5
[2] = cell lines with low EGFR MPS (<−0.5) that yet harbored EGFR mutations

## CN1CCN(CCOc2cc(OC3CCOCC3)c3c(Nc4c(Cl)ccc5c4OCO5)ncnc3c2)CC1 [AZD0530, saracatinib]
EGFR WT cell lines with MPS<−0.5
  fraction of cell lines responding to EGFR inhibitors: 33%
EGFR WT cell lines with MPS>0.5
  fraction of cell lines responding to EGFR inhibitors: 50%
[1]
  cell lines observed to be sensitive to the drug (sensitive/total): 5/6
[2]
  cell lines observed to be sensitive to the drug (sensitive/total): 0/2

## CS(=O)(=O)CCNCc1ccc(-c2ccc3ncnc(Nc4ccc(OCc5cccc(F)c5)c(Cl)c4)c3c2)o1 [lapatinib]
  fraction of cell lines responding to EGFR inhibitors: 36% and 27%
[1]
  cell lines observed to be sensitive to the drug (sensitive/total): 4/6
[2]
  cell lines observed to be sensitive to the drug (sensitive/total): 1/2

## C#Cc1cccc(Nc2ncnc3cc(OCCOC)c(OCCOC)cc23)c1 [erlotinib]
[1]
  cell lines observed to be sensitive to the drug (sensitive/total): 5/6
[2]
  cell lines observed to be sensitive to the drug (sensitive/total): 1/2
